Patent US20090239749A1, “Biocidal compositions” (priority 2006, published 2009)
In brackets after ≈: the same amount, converted by molar mass.

What was measured:
[1] = cited from earlier work
[2] = system: Candida albicans (CA); assay: Minimum Inhibitory Concentration (MIC) test in YEME media, 96 well plate; type: cell-based
Procedure: These materials produced according to Examples 4-6 were examined for their biocidal efficacy by following a standardised Minimum Inhibitory Concentration (MIC) test. The test consisted of known number of cells of a strain of Candida albicans (CA) in YEME (yeast extract malt extract media), inoculating concentrations of the active material and blanks contained in a 96 well plate. The plates were incubated at 37° C. overnight, and then examined with a UV plate reader at a wavelength of 550 nm.
Equivalent experiments were also conducted to determine the MIC for the biocide active dissolved in a water miscible solvent. In these cases the “blank” reference material was simply a sample of the solvent containing no active compound.
All experiments were repeated 4 times.
All experiments were conducted in YEME media against a CA culture.

Structure (SMILES): CC1(C)[C@H](C(=O)O[C@H](C#N)c2cccc(Oc3ccccc3)c2)[C@@H]1/C=C(\Cl)C(F)(F)F (racemic) [λ-cyhalothrin]
- solubility in water [1]: 0.005 µg/mL (≈ 0.0111 µM)

Structure (SMILES): CO/C=C(/C(=O)OC)c1ccccc1Oc1cc(Oc2ccccc2C#N)ncn1 [Azoxystrobin, methyl(E)-2-{2-[6-(2-cyanophenoxy)pyrimidin-4-yloxy]phenyl}-3-methoxyacrylate]
- solubility in water [1]: ~6 µg/mL (≈ 14.9 µM)

Structure (SMILES): N#Cc1c(Cl)c(Cl)c(Cl)c(C#N)c1Cl [Chlorothalonil, 2,4,5,6-tetrachloroisophthalonitrile]
- solubility in water [1]: ~0.6 µg/mL (≈ 2.26 µM)

Structure (SMILES): CC(=O)N1CCN(c2ccc(OCC3COC(Cn4ccnc4)(c4ccc(Cl)cc4Cl)O3)cc2)CC1 (stereo not shown) [Ketoconazole, acetyl-dichlorophenyl-imidazole]
- MIC ([2]; ketoconazole, initial concentration 0.15 mg/ml active, incubated overnight 37° C.): 65 µg/mL (≈ 122 µM)

Structure (SMILES): CCCC1COC(Cn2cncn2)(c2ccc(Cl)cc2Cl)O1 (stereo not shown) [Propiconazole, 1-(2-(2,4-dichlorophenyl)-4-propyl-1-1,3-dioxolan-2-ylmethyl)-1H-1,2,4-tri azole]
- MIC ([2]; dissolved in a water/propylene glycol cosolvent mixture): 91.6 µg/mL (≈ 268 µM)
- solubility in water [1]: around 100 mg/L

Structure (SMILES): Oc1cc(Cl)ccc1Oc1ccc(Cl)cc1Cl [Triclosan, 5-chloro-2-(2,4-dichlorophenoxy)-phenol]
- solubility in water [1]: 17 µg/mL (≈ 58.7 µM)
